Tests used:
[1] = system: factor XIII prepared by recombinant DNA technology; experiment: storage stabilizer effect on factor XIII prepared by recombinant DNA technology; format: physicochemical, human
[2] = system: human blood coagulation factor XIII; experiment: optimum concentration of stabilizers: residual factor XIII activity after 60° C. for 30 minutes (Example 1); format: physicochemical
From the text: As for the measuring methods of factor XIII activity, fibrin formation, transglutaminase activity measurement, and immunologic measurement of antigen amount can be mentioned. Herein, the dansylcadaverine method (Nishida J., et al. Thromb. Res., vol. 36 pp. 123-131 (1984)) was adopted which can determine quantitatively the active factor XIII with high accuracy. Dansylcadaverine (purchased from YATRON) is a fluorescent amine which is the substrate of factor XIII, and forms dansylcadaverine-casein complex with casein by the action of factor XIII; the complex is separated by gel-filtration after the reaction and the factor XIII activity can be determined by the fluorescence intensity of the complex. The factor XIII activity is expressed by units; one unit is the amount of factor XIII which is contained in one milliliter of normal human plasma.
Optimum concentration of the present stabilizers was investigated.
To factor XIII produced according to the recombinant DNA technology as disclosed in DE 3804890 Al and incorporated by reference herein, (adjusted to the final titer of 100 units/ml with the water for injection according to the Pharmacopoeia of Japan) was added galactose, sucrose, D-sorbitol, sodium L-glutamate, sodium L-aspartate or L-histidine, and the mixture was warmed in a hot water bath at 60° C. for 30 minutes and then the activity of factor XIII was determined. Residual activity rate (%) of factor XIII was calculated, defining as 100% factor XIII activity of the preparation wherein factor XIII solution was adjusted to a titer of 100 units/ml.

glucose
effect as storage stabilizer (in words) [1]: ineffective

NCC(=O)O [Glycine]
effect as storage stabilizer (in words) [1]: ineffective

N[C@@H](Cc1c[nH]cn1)C(=O)O [L-Histidine, L-histidine]
Residual Activity Rate ([2]; additive conc. 0.125 w/v %): 62.2%
Residual Activity Rate ([2]; additive conc. 0.25 w/v %): 71.6%
Residual Activity Rate ([2]; additive conc. 0.5 w/v %): 78.4%
Residual Activity Rate ([2]; additive conc. 1.0 w/v %): 97.4%
Residual Activity Rate ([2]; additive conc. 2.0 w/v %): 65.3%

NC(=O)CC[C@H](N)C(=O)O [glutamine]
effect as storage stabilizer (in words) [1]: ineffective

O=C(O)[C@@H]1C[C@@H](O)CN1 [hydroxyproline]
effect as storage stabilizer (in words) [1]: ineffective

galactose
effective concentration of stabilizer [2]: 1.25-40 w/v %

C[C@H](N)C(=O)O [alanine]
effect as storage stabilizer (in words) [1]: ineffective

OC[C@H]1O[C@@](CO)(O[C@H]2O[C@H](CO)[C@@H](O)[C@H](O)[C@H]2O)[C@@H](O)[C@@H]1O [Sucrose]
effective concentration of stabilizer [2]: 1.25-40 w/v %
Residual Activity Rate ([2]; additive conc. 1.25 w/v %): 86.7%
Residual Activity Rate ([2]; additive conc. 2.5 w/v %): 88.6%
Residual Activity Rate ([2]; additive conc. 5.0 w/v %): 90.0%
Residual Activity Rate ([2]; additive conc. 10 w/v %): 99.0%
Residual Activity Rate ([2]; additive conc. 15 w/v %): 100.0%
Residual Activity Rate ([2]; additive conc. 20 w/v %): 96.2%
Residual Activity Rate ([2]; additive conc. 40 w/v %): 75.7%

OC[C@@H](O)[C@@H](O)[C@H](O)[C@@H](O)CO [D-Sorbitol]
effective concentration of stabilizer [2]: 1.25-40 w/v %
Residual Activity Rate ([2]; additive conc. 1.25 w/v %): 73.8%
Residual Activity Rate ([2]; additive conc. 2.5 w/v %): 73.9%
Residual Activity Rate ([2]; additive conc. 5.0 w/v %): 74.5%
Residual Activity Rate ([2]; additive conc. 10 w/v %): 94.0%
Residual Activity Rate ([2]; additive conc. 15 w/v %): 98.4%
Residual Activity Rate ([2]; additive conc. 20 w/v %): 96.0%
Residual Activity Rate ([2]; additive conc. 40 w/v %): 86.9%

N[C@@H](CCC(=O)[O-])C(=O)[O-].[Na+].[Na+] [Sodium L-glutamate, sodium L-glutamate]
Residual Activity Rate ([2]; additive conc. 0.125 w/v %): 76%
Residual Activity Rate ([2]; additive conc. 0.25 w/v %): 71.1%
Residual Activity Rate ([2]; additive conc. 0.5 w/v %): 98.6%
Residual Activity Rate ([2]; additive conc. 1.0 w/v %): 92.5%
Residual Activity Rate ([2]; additive conc. 2.0 w/v %): 87.8%
Residual Activity Rate ([2]; additive conc. 5.0 w/v %): 79.4%
Residual Activity Rate ([2]; additive conc. 10 w/v %): 65.3%

N[C@@H](CC(=O)[O-])C(=O)[O-].[Na+].[Na+] [Sodium L-aspartate, sodium L-aspartate]
Residual Activity Rate ([2]; additive conc. 0.125 w/v %): 83.3%
Residual Activity Rate ([2]; additive conc. 0.25 w/v %): 80.9%
Residual Activity Rate ([2]; additive conc. 0.5 w/v %): 93.3%
Residual Activity Rate ([2]; additive conc. 1.0 w/v %): 101.1%
Residual Activity Rate ([2]; additive conc. 2.0 w/v %): 66.5%
Residual Activity Rate ([2]; additive conc. 5.0 w/v %): 58.8%
Residual Activity Rate ([2]; additive conc. 10 w/v %): 55.4%

— patent publication US6084074A, “Stabilized aqueous liquid preparations of blood coagulation factor XIII” (Centeon Pharma GmbH, priority 1995, dated 2000)
